Series [1] has as its system p53 signaling (p53RE-bla HCT-116 cells). Briefly: cells. It counts as cell-based.
Series [2] shares this test system. Particulars: for EC50: read-out: p53 activation EC50.
The test system is the same in series [3].
The test system is the same in series [4]. Description: cells. Particulars: Homo sapiens.
The test system is the same in series [5]. Description: cells. It counts as cell-based. This is another data set of the same source.
For series [6] the test system is unchanged. Briefly: cells. In kind it is cell-based.
Series [7] shares this test system. Description: cells. The settings on record: Homo sapiens. This is another data set of the same source.
[8] abbreviates: HCT-116, read-out: p53 activation efficacy.
Where [9] appears, read: HCT-116, read-out: p53 activation EC50, HLM.
[10] abbreviates: Homo sapiens, HCT-116, read-out: efficacy.
The mark [11] stands for this setting: HCT-116, read-out: p53 activation EC50, cherry pick confirmation.
[12] abbreviates: HCT-116, read-out: p53 activation efficacy, cherry pick confirmation.

Where “and” joins values, the source holds several entries; their conditions need not be identical. Equal values may be shown once. Where a name gives a salt, the structure may show the parent alone. Read-outs that look alike come from different tables or passages of the source.

The EC50 is the concentration needed to bring the measured effect to its halfway point. For the compound `Nc1ccc2c(O)cc(S(=O)(=O)O)cc2c1`, the p53 activation efficacy in series [1] is 61.5673 and 83.6027. Further, in series [2], the p53 activation efficacy was 57.1256 and 31.0337; the EC50 turned out to be 10.9 µM. In addition, in series [3], the “p53 activation EC50” value is “inactive”. Besides, in the series on p53RE-bla HCT-116 cells, the “Viability EC50” value is “inactive” and the Viability efficacy entry was “inactive”. Also, the Emax in series [4] (setting [8]) was 27%.
Turning to `Oc1c(Cl)c(Cl)cc(Cl)c1Cl` [2,3,5,6-Tetrachlorophenol], the concentration giving a half-maximal response (EC50) in series [1] (Homo sapiens, HCT-116, read-out: EC50, p53 activation, cherry pick confirmation) stood at 29.5 µM. Besides, the EC50 in series [1] (Homo sapiens, HCT-116, read-out: EC50, p53 activation, primary screening) was 24.6 µM. Moreover, the Emax in series [1] (Homo sapiens, HCT-116, read-out: Efficacy, p53 activation, cherry pick confirmation) is 31.3%. Further, the Emax in series [1] (Homo sapiens, HCT-116, read-out: Efficacy, p53 activation, primary screening) worked out at 36.3%. Moreover, in series [2], the “EC50, p53 activation, cherry pick confirmation” value is “inactive”; the “EC50, p53 activation, primary screening” value was “inactive”; the “Efficacy, p53 activation, cherry pick confirmation” value is “inactive”; the “Efficacy, p53 activation, primary screening” value was “inactive”. Moreover, in series [3], the “EC50, p53 activation, cherry pick confirmation” value was “inactive” and the “Efficacy, p53 activation, cherry pick confirmation” value is “inactive”. In the series with p53RE-bla HCT-116 cells, the “EC50, viability, cherry pick confirmation” value is “inactive”; the “EC50, viability, primary screening” value was “inactive”; the “Efficacy, viability, cherry pick confirmation” value was “inactive”; the “Efficacy, viability, primary screening” value is “inactive”. For the same compound, the EC50 in series [4] (HCT-116, read-out: EC50, p53 activation, primary screening) worked out at 21 µM. For the same compound, the Emax in series [4] (HCT-116, read-out: Efficacy, p53 activation, primary screening) is 35.1%.
Regarding `Nc1ccc(-c2ccc(N)c(Cl)c2)cc1Cl` [3,3'-Dichlorobenzidine], the EC50 in series [1] (read-out: p53 activation EC50) worked out at 16.4 µM. Moreover, in series [2], the “p53 activation EC50” value is “inactive” and the p53 activation efficacy result is “inactive”. Also, the “p53 activation EC50” value in series [3] is “inactive”. In the series on p53RE-bla HCT-116 cells, the “Viability EC50” value is “inactive” and the Viability efficacy entry was “inactive”. Also, the Emax in series [4] (setting [8]) amounted to 33.9%.
Take `N=C(N)NC(=O)c1nc(Cl)c(N)nc1N` [Amiloride hydrochloride]: in series [1], the “p53 activation EC50, No MS” value is “inactive” and the “p53 activation Efficacy, No MS” value is “inactive”. In series [2], the “p53 activation EC50, RLM” value was “inactive” and the “p53 activation Efficacy, RLM” value is “inactive”. Further, the “p53 activation EC50, HLM” value in series [3] is “inactive”. In addition, in the series with p53RE-bla HCT-116 cells, the “Viability EC50, HLM” value was “inactive”; the “Viability EC50, No MS” value was “inactive”; the “Viability EC50, RLM” value is “inactive”; the “Viability Efficacy, HLM” value is “inactive”. Moreover, in the series on p53RE-bla HCT-116 cells, the “Viability Efficacy, No MS” value was “inactive” and the “Viability Efficacy, RLM” value is “inactive”. The EC50 in series [4] (setting [9]) was determined as 38.7 µM.
Take `COP(=S)(OC)Oc1cc(Cl)c(Br)cc1Cl` [Bromofos]: the “p53 activation EC50” value in series [1] and in series [3] was “inactive” in each case. The figures for the p53 activation efficacy entry in series [1] and in series [2] were “inactive” and 62.741, respectively. The half-maximal effective concentration (EC50) in series [5] (Homo sapiens, HCT-116, 0.5 h) is 16.2 µM; in series [6], “Inactive”; in series [2] it was 15.1 µM; in series [7] (HCT-116) it was 17.8 µM. For the same compound, the Emax was 40.6% in series [5] (setting [10]) and 66.6% in series [7] (HCT-116, read-out: efficacy). Also, the “Viability EC50” value in the series with p53RE-bla HCT-116 cells is “inactive”. Also, the Viability efficacy entry in the series on p53RE-bla HCT-116 cells was “inactive”.
Regarding `O=c1ccc2ccccc2o1` [Coumarin], in series [1], the “p53 activation EC50, No MS” value is “inactive” and the “p53 activation Efficacy, No MS” value is “inactive”. In series [2], the “p53 activation EC50, RLM” value was “inactive” and the “p53 activation Efficacy, RLM” value is “inactive”. Moreover, the “p53 activation EC50, HLM” value in series [3] was “inactive”. In addition, in the series with p53RE-bla HCT-116 cells, the “Viability EC50, HLM” value is “inactive”; the “Viability EC50, No MS” value is “inactive”; the “Viability EC50, RLM” value was “inactive”; the “Viability Efficacy, HLM” value is “inactive”. In the series with p53RE-bla HCT-116 cells, the “Viability Efficacy, No MS” value was “inactive” and the “Viability Efficacy, RLM” value is “inactive”. The concentration giving a half-maximal response (EC50) in series [4] (setting [9]) worked out at 28.6 µM.
In turn, `Nc1ccn([C@@H]2O[C@H](CO)[C@@H](O)[C@@H]2O)c(=O)n1` [Cytarabine hydrochloride] had a p53 activation efficacy in series [1] of 74.252. For the same compound, in series [2], the “p53 activation EC50” value was “inactive” and the p53 activation efficacy result was “inactive”. Further, the “p53 activation EC50” value in series [3] was “inactive”. Also, in the series with p53RE-bla HCT-116 cells, the “Viability EC50” value is “inactive” and the Viability efficacy result was “inactive”. For the same compound, in series [4] (HCT-116, read-out: p53 activation EC50), the EC50 was 3.49 µM.
With `COP(=O)(OC)O/C(C)=C/C(=O)N(C)C` [Dicrotophos], the “p53 activation EC50” value in series [1] and in series [3] was “inactive” each time. Further, the values for the p53 activation efficacy entry in series [1] and in series [2] were “inactive” and 47.1617, respectively. The EC50 in series [5] (Homo sapiens, HCT-116, 0.5 h) was 11.5 µM; in series [6] (Homo sapiens, HCT-116), 9.07 µM; in series [2], 14.3 µM; in series [7] (HCT-116), 11.4 µM. In addition, the “Viability EC50” value in the series with p53RE-bla HCT-116 cells was “inactive”. Besides, in the series on p53RE-bla HCT-116 cells, the Viability efficacy entry is “inactive”. Further, in series [7] (HCT-116, read-out: efficacy), the Emax was 40.6%.
As for `Cc1cc(OC(=O)N(C)C)nn1C(=O)N(C)C` [Dimetilan], in series [1], the “p53 activation EC50, cherry pick confirmation” value was “inactive”; the “p53 activation EC50, primary screening” value is “inactive”; the “p53 activation efficacy, cherry pick confirmation” value is “inactive”; the “p53 activation efficacy, primary screening” value is “inactive”. Besides, the half-maximal effective concentration (EC50) result in series [5] is reported as “Inactive”. This compound also had an EC50 in series [6] (Homo sapiens, HCT-116) of 5.11 µM. Moreover, the Emax in series [6] (setting [10]) was 43.6%. In addition, in series [3], the “p53 activation EC50, cherry pick confirmation” value was “inactive” and the “p53 activation efficacy, cherry pick confirmation” value is “inactive”. In the series on p53RE-bla HCT-116 cells, the “Viability EC50, cherry pick confirmation” value was “inactive”; the “Viability EC50, primary screening” value was “inactive”; the “Viability efficacy, cherry pick confirmation” value was “inactive”; the “Viability efficacy, primary screening” value was “inactive”. For the same compound, the EC50 in series [7] (HCT-116) came out at 5.44 µM. Also, the Emax in series [7] (HCT-116, read-out: efficacy) is 34.6%. Also, the EC50 in series [7] (setting [11]) was found to be 6.19 µM. Also, the Emax in series [7] (setting [12]) stood at 33.8%.
On to `CCOP(=S)(OCC)SCSP(=S)(OCC)OCC` [Ethion], for which the “p53 activation EC50” value in series [1] and in series [3] was “inactive” each time. Moreover, the p53 activation efficacy entry in series [1] is “inactive”; in series [2], 48.0253. Besides, the EC50 was 5.91 µM in series [5] (Homo sapiens, HCT-116, 0.5 h); 3.29 µM in series [6] (Homo sapiens, HCT-116); 2.04 µM in series [2]; 6.2 µM in series [7] (HCT-116). Also, the “Viability EC50” value in the series with p53RE-bla HCT-116 cells was “inactive”. In the series on p53RE-bla HCT-116 cells, the Viability efficacy result was “inactive”. In addition, the Emax in series [7] (HCT-116, read-out: efficacy) was 53.8%.
In the case of `COP(=S)(OC)Oc1ccc([N+](=O)[O-])c(C)c1` [Fenitrothion], the “p53 activation EC50, cherry pick confirmation” value in series [1] and in series [3] was “inactive” in each case. In addition, the “p53 activation EC50, primary screening” value in series [1] and in series [3] was “inactive” each time. For the same compound, the “p53 activation efficacy, cherry pick confirmation” value in series [1] and in series [3] was “inactive” in each case. The “p53 activation efficacy, primary screening” value in series [1] and in series [3] was “inactive” throughout. For the same compound, the concentration for a half-maximal effect (EC50) in series [5] (Homo sapiens, HCT-116, 0.5 h) is 4.18 µM; in series [6] (Homo sapiens, HCT-116) it was 10.4 µM; in series [7] (HCT-116), 9.91 µM; in series [7] (setting [11]) it was 9.34 µM; in series [7] (HCT-116, read-out: p53 activation EC50, primary screening), 2.58 µM. The “Viability EC50, cherry pick confirmation” value with p53RE-bla HCT-116 cells was “inactive”. The “Viability EC50, primary screening” value in the series with p53RE-bla HCT-116 cells is “inactive”. Also, in the series on p53RE-bla HCT-116 cells, the “Viability efficacy, cherry pick confirmation” value is “inactive”. The “Viability efficacy, primary screening” value in the series with p53RE-bla HCT-116 cells is “inactive”. The Emax in series [7] (HCT-116, read-out: efficacy) was 116%; in series [7] (setting [12]) it was 93.3%; in series [7] (HCT-116, read-out: p53 activation efficacy, primary screening) it was 59.9%.
Take `COP(N)(=S)Oc1ccccc1C(=O)OC(C)C` (centres unmarked) [Isocarbophos]: the “p53 activation EC50, primary screening” value in series [1] is “inactive”. Further, the “p53 activation efficacy, primary screening” value in series [1] was “inactive”. Further, the 50% effective concentration (EC50) was determined as 2.05 µM in series [1] (Homo sapiens, HCT-116, read-out: p53 activation EC50, cherry pick confirmation); 25.6 µM in series [5] (Homo sapiens, HCT-116, 0.5 h); 1.86 µM in series [6] (Homo sapiens, HCT-116); 4.93 µM in series [7] (HCT-116); 3.72 µM in series [7] (setting [11]). The Emax is 32.4% in series [1] (Homo sapiens, HCT-116, read-out: p53 activation efficacy, cherry pick confirmation); 83.1% in series [7] (HCT-116, read-out: efficacy); 78.7% in series [7] (setting [12]). Besides, the “p53 activation EC50, cherry pick confirmation” value in series [3] is “inactive”. For the same compound, the “p53 activation efficacy, cherry pick confirmation” value in series [3] was “inactive”. Further, the “Viability EC50, cherry pick confirmation” value in the series with p53RE-bla HCT-116 cells is “inactive”. In addition, in the series with p53RE-bla HCT-116 cells, the “Viability EC50, primary screening” value was “inactive”. In addition, the “Viability efficacy, cherry pick confirmation” value with p53RE-bla HCT-116 cells is “inactive”. The “Viability efficacy, primary screening” value in the series on p53RE-bla HCT-116 cells is “inactive”.
For the compound `COP(=O)(OC)OC(=CCl)c1cc(Cl)c(Cl)cc1Cl` [Tetrachlorovinphos], in series [1], the “p53 activation EC50, No MS” value is “inactive” and the “p53 activation Efficacy, No MS” value was “inactive”. For the same compound, the “p53 activation EC50, HLM” value in series [3] is “inactive”. Besides, in the series on p53RE-bla HCT-116 cells, the “Viability EC50, HLM” value is “inactive”; the “Viability EC50, No MS” value was “inactive”; the “Viability EC50, RLM” value is “inactive”; the “Viability Efficacy, HLM” value was “inactive”. In the series with p53RE-bla HCT-116 cells, the “Viability Efficacy, No MS” value was “inactive” and the “Viability Efficacy, RLM” value was “inactive”. In addition, in series [4] (setting [9]), the half-maximal effective concentration (EC50) stood at 16.4 µM.

These data come from article PMC9151520 (Archives of Toxicology, 2022).
